SMILES strings stand for the structures. Starred links: 1 amine or outer side, 2 acyl side, 3 side chain; linkers in the order of their positions; H or OH if unused. Positions of bridges follow the written chain, without caps; N, C: chain ends. Non-standard residues stand in square brackets, D forms with d. Residues, ends and D or L forms follow the SMILES beside them. Groups on a side chain read outwards from the residue. *: point of attachment. Phe(4-OC2H4NH2,2,3-(CH2)3) = NCCOc1ccc(C[C@H](N)C(=O)O)c2c1CCC2; Trp(7-cPr) = N[C@@H](Cc1c[nH]c2c(C3CC3)cccc12)C(=O)O; X4 = COCCOCCOCCOCCOCCOCCOCCOCCOCCOCCOCCOCCOCC(=O)*; NH(CH2CH2O)4CH2CO = O=C(COCCOCCOCCOCCN[*:1])[*:2]; Trp(7-Me) = Cc1cccc2c(C[C@H](N)C(=O)O)c[nH]c12; X6 = COCCOCCOCCOCCOCCOCCOCCOCCOCCOCC(=O)*; γGlu = O=C(O)[C@H](CCC(=O)[*:2])N[*:1]; 2Nal = N[C@@H](Cc1ccc2ccccc2c1)C(=O)O; X1 = O=C(C(N[*:1])C1(S[*:3])CC1)[*:2]; Thp(SO2) = NC1(C(=O)O)CCS(=O)(=O)CC1; AEF = NCCOc1ccc(C[C@H](N)C(=O)O)cc1; Adipoyl = O=C(CCCCC(=O)[*:2])[*:1]; 3Pal = N[C@@H](Cc1cccnc1)C(=O)O; Pen = CC(C)(S)[C@H](N)C(=O)O; Thp = NC1(C(=O)O)CCOCC1; AEEA = NCCOCCOCC(=O)O; AEA = NCCOCC(=O)O; Sar = CNCC(=O)O

The target in this experiment is T1, IL-23α/IL-12β and IL-23R (Homo sapiens, UniProt Q5VWK5).
T1 construct: purchased ACRO ILR-H82F3 (IL-23R); ILB-H52W5 (IL-23α/IL-12β)
T1 sequence (Q5VWK5 24-353 limits assumed): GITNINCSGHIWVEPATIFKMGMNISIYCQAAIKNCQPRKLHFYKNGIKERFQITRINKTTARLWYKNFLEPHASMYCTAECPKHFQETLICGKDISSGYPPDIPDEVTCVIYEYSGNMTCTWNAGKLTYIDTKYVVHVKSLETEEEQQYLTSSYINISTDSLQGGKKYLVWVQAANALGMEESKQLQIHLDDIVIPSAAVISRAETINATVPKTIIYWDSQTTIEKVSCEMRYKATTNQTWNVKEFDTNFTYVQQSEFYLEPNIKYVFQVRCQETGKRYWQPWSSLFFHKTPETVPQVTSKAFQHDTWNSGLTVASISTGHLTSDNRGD
In words: IL-23α/IL-12β and IL-23R binding assay (TR-FRET/HTRF). The note with it: inhibition of the binding of IL-23α/IL-12β to IL-23R, TR-FRET; both proteins 0.3 nM. As for the experimental part: 1. IL-23α/IL-12β and IL-23R binding assay
Compounds were tested for their inhibition on the binding of IL-23α/IL-12β to IL-23R by the TR-FRET method. Solutions of proteins IL-23α/IL-12β (ACRO, Cat# ILB-H52W5) and IL-23R (ACRO, Cat# ILR-H82F3) were prepared in reaction buffer PPI (PerkinElmer, Cat# 61DB10RDF). The final concentrations of IL-23α/IL-12β and IL-23R in the reaction mixture were both 0.3 nM. Positive reference Guselkumab was 3-fold diluted from an initial concentration of 30 nM, with 10 doses. 0.1 µL of the positive reference diluted in the reaction buffer was delivered to a 384-well plate (Grenier, Cat# 784075) by the acoustic liquid delivery technique (Echo 655), and the plate was centrifuged at 1000 rpm for 1 minute. 2.5 µL of IL-23α/IL-12β solution was transferred into the 384-well reaction plate, and the plate was centrifuged at 1000 rpm for 1 minute, and incubated at 25°C for 60 minutes. 2.5 µL of IL-23R solution was transferred into the 384-well reaction plate, and the plate was centrifuged at 1000 rpm for 1 minute. 5 µL of Streptavidin-Tb cryptate and Anti 6HIS-d2 detection mixture was transferred into the 384-well reaction plate, and the plate was centrifuged at 1000 rpm for 1 minute, and incubated at 25°C for 60 minutes. Finally, the HTRF signal (Ratio 665/620 nm) was read with a BMG high-throughput drug screening multifunctional microplate reader. IC50 values were obtained by nonlinear regression curve fitting using GraphPad Prism software.
A general note: TR-FRET usually uses a lanthanide donor and a delayed reading to cut background.
For `CC(=O)NCCCC[C@@H]1NC(=O)[C@H](Cc2c[nH]c3c(C)cccc23)NC(=O)[C@H]([C@@H](C)O)NC(=O)[C@H](Cc2c[nH]cn2)NC(=O)[C@H]2NC(=O)COCCNC(=O)CC[C@@H](C(=O)N[C@@H](CC(N)=O)C(=O)N[C@@H](Cc3cccnc3)C(=O)N(C)CC(N)=O)NC(=O)C3(CCOCC3)NC(=O)[C@H](Cc3ccc4ccccc4c3)NC(=O)[C@H](Cc3ccc(OCCN)cc3)NC(=O)[C@@H](NC1=O)C(C)(C)SSC2(C)C` [Compound 38] ([AEA][Pen]HT[Trp(7-Me)]K(Ac)[Pen][AEF][2Nal][Thp]EN[3Pal][Sar]-NH2; disulfide 2-7 (inferred); lactam N-11 (inferred)), the IC50 (usually the midpoint of a concentration-inhibition curve) came to 0.212 nM. Molecule `COCCOCCOCCOCCOCCOCCOCCOCCOCCOCC(=O)N[C@@H]1C(=O)N[C@@H](Cc2c[nH]cn2)C(=O)N[C@@H]([C@@H](C)O)C(=O)N[C@@H](Cc2c[nH]c3c(C4CC4)cccc23)C(=O)N[C@@H](CCC(N)=O)C(=O)N[C@H](C(=O)N[C@@H](Cc2ccc(OCCN)c3c2CCC3)C(=O)N[C@@H](Cc2ccc3ccccc3c2)C(=O)NC2(C(=O)N[C@@H](CCC(=O)O)C(=O)N[C@@H](CC(N)=O)C(=O)N[C@@H](Cc3cccnc3)C(=O)N(C)CC(N)=O)CCS(=O)(=O)CC2)C(C)(C)SSC1(C)C` [Compound 39] (X6-[Pen]HT[Trp(7-cPr)]Q[Pen][Phe(4-OC2H4NH2,2,3-(CH2)3)][2Nal][Thp(SO2)]EN[3Pal][Sar]-NH2; disulfide 1-6) yielded an IC50 of 0.057 nM. The value for `COCCOCCOCCOCCOCCOCCOCCOCCOCCOCCOCCOCCOCC(=O)N[C@@H]1C(=O)N[C@@H](Cc2c[nH]cn2)C(=O)N[C@@H]([C@@H](C)O)C(=O)N[C@@H](Cc2c[nH]c3c(C4CC4)cccc23)C(=O)N[C@@H](CCC(N)=O)C(=O)N[C@H](C(=O)N[C@@H](Cc2ccc(OCCN)c3c2CCC3)C(=O)N[C@@H](Cc2ccc3ccccc3c2)C(=O)NC2(C(=O)N[C@@H](CCC(=O)O)C(=O)N[C@@H](CC(N)=O)C(=O)N[C@@H](Cc3cccnc3)C(=O)N(C)CC(N)=O)CCS(=O)(=O)CC2)C(C)(C)SSC1(C)C` [Compound 46] (X4-[Pen]HT[Trp(7-cPr)]Q[Pen][Phe(4-OC2H4NH2,2,3-(CH2)3)][2Nal][Thp(SO2)]EN[3Pal][Sar]-NH2; disulfide 1-6) was 0.095 nM. The value for `CC(=O)N[C@@H](CCC(=O)NCCOCCOCC(=O)NCCOCCOCC(=O)NCCCC[C@@H]1NC(=O)[C@H](Cc2c[nH]c3c(C4CC4)cccc23)NC(=O)[C@H]([C@@H](C)O)NC(=O)[C@H](Cc2c[nH]cn2)NC(=O)[C@@H](NC(C)=O)C(C)(C)SSC(C)(C)[C@@H](C(=O)N[C@@H](Cc2ccc(OCCN)c3c2CCC3)C(=O)N[C@@H](Cc2ccc3ccccc3c2)C(=O)NC2(C(=O)N[C@@H](CCC(=O)O)C(=O)N[C@@H](CC(N)=O)C(=O)N[C@@H](Cc3cccnc3)C(=O)N(C)CC(N)=O)CCS(=O)(=O)CC2)NC1=O)C(=O)O` [Compound 47] (Ac-[Pen]HT[Trp(7-cPr)]K([AEEA-AEEA-γGlu-Ac])[Pen][Phe(4-OC2H4NH2,2,3-(CH2)3)][2Nal][Thp(SO2)]EN[3Pal][Sar]-NH2; disulfide 1-6) was 0.093 nM. With `C[C@@H](O)[C@@H]1NC(=O)[C@H](Cc2c[nH]cn2)NC(=O)[C@@H](NC(=O)COCCOCCNC(=O)COCCOCCNC(=O)CC[C@H](NC(=O)CCCCC(=O)O)C(=O)O)C(C)(C)SSC(C)(C)[C@@H](C(=O)N[C@@H](Cc2ccc(OCCN)c3c2CCC3)C(=O)N[C@@H](Cc2ccc3ccccc3c2)C(=O)NC2(C(=O)N[C@@H](CCC(=O)O)C(=O)N[C@@H](CC(N)=O)C(=O)N[C@@H](Cc3cccnc3)C(=O)N(C)CC(N)=O)CCS(=O)(=O)CC2)NC(=O)[C@H](CCC(N)=O)NC(=O)[C@H](Cc2c[nH]c3c(C4CC4)cccc23)NC1=O` [Compound 48] ({Adipoyl-γGlu-AEEA-AEEA}-[Pen]HT[Trp(7-cPr)]Q[Pen][Phe(4-OC2H4NH2,2,3-(CH2)3)][2Nal][Thp(SO2)]EN[3Pal][Sar]-NH2; disulfide 1-6) the figure was 0.058 nM; with `CC(=O)N[C@@H]1C(=O)N[C@@H](Cc2c[nH]cn2)C(=O)N[C@@H]([C@@H](C)O)C(=O)N[C@@H](Cc2c[nH]c3c(C4CC4)cccc23)C(=O)N[C@@H](CCCCNC(=O)COCCOCCNC(=O)COCCOCCNC(=O)CC[C@H](NC(=O)CCCCC(=O)O)C(=O)O)C(=O)N[C@H](C(=O)N[C@@H](Cc2ccc(OCCN)c3c2CCC3)C(=O)N[C@@H](Cc2ccc3ccccc3c2)C(=O)NC2(C(=O)N[C@@H](CCC(=O)O)C(=O)N[C@@H](CC(N)=O)C(=O)N[C@@H](Cc3cccnc3)C(=O)N(C)CC(N)=O)CCS(=O)(=O)CC2)C(C)(C)SSC1(C)C` [Compound 49] (Ac-[Pen]HT[Trp(7-cPr)]K([AEEA-AEEA-γGlu-Adipoyl])[Pen][Phe(4-OC2H4NH2,2,3-(CH2)3)][2Nal][Thp(SO2)]EN[3Pal][Sar]-NH2; disulfide 1-6), 0.068 nM. In turn, `CC(=O)NCCCC[C@@H]1NC(=O)[C@H](Cc2c[nH]c3c(C)cccc23)NC(=O)[C@H]([C@@H](C)O)NC(=O)[C@H](Cc2c[nH]cn2)NC(=O)[C@@H](NC(C)=O)CCCC[C@@H](C(=O)N[C@@H](Cc2ccc(OCCN)c3c2CCC3)C(=O)N[C@@H](Cc2ccc3ccccc3c2)C(=O)NC2(C(=O)N[C@@H](CCC(=O)O)C(=O)N[C@@H](CC(N)=O)C(=O)N[C@@H](Cc3cccnc3)C(=O)N(C)CC(N)=O)CCOCC2)NC1=O` [Compound 52] yielded an IC50 of 0.101 nM. The value for `Cc1cccc2c(C[C@@H]3NC(=O)[C@H]([C@@H](C)O)NC(=O)[C@H](Cc4c[nH]cn4)NC(=O)C4NC(=O)COCCOCCOCCOCCNC(=O)CC[C@@H](C(=O)N[C@@H](CC(N)=O)C(=O)N[C@@H](Cc5cccnc5)C(=O)N(C)CC(N)=O)NC(=O)C5(CCS(=O)(=O)CC5)NC(=O)[C@H](Cc5ccc6ccccc6c5)NC(=O)[C@H](Cc5ccc(OCCN)cc5)NC(=O)[C@@H](NC(=O)[C@H](CCC(N)=O)NC3=O)C(C)(C)SSC43CC3)c[nH]c12` [Compound 53] ([NH(CH2CH2O)4CH2CO][X1]HT[Trp(7-Me)]Q[Pen][AEF][2Nal][Thp(SO2)]EN[3Pal][Sar]-NH2; disulfide 2-7; lactam N-11) was 0.065 nM; that for `CC(=O)NC1C(=O)N[C@@H](Cc2c[nH]cn2)C(=O)N[C@@H]([C@@H](C)O)C(=O)N[C@@H](Cc2c[nH]c3c(C4CC4)cccc23)C(=O)N[C@@H](CCC(N)=O)C(=O)NC(C(=O)N[C@@H](Cc2ccc(OCCN)c3c2CCC3)C(=O)N[C@@H](Cc2ccc3ccccc3c2)C(=O)NC2(C(=O)N[C@@H](CCC(=O)O)C(=O)N[C@@H](CC(N)=O)C(=O)N[C@@H](Cc3cccnc3)C(=O)N(C)CC(N)=O)CCS(=O)(=O)CC2)C2(CC2)SSC12CC2` (stereo partly shown) [Compound 54] (Ac-[X1]HT[Trp(7-cPr)]Q[X1][Phe(4-OC2H4NH2,2,3-(CH2)3)][2Nal][Thp(SO2)]EN[3Pal][Sar]-NH2; disulfide 1-6) was 0.091 nM; that for `CC(=O)NC1C(=O)N[C@@H](Cc2c[nH]cn2)C(=O)N[C@@H]([C@@H](C)O)C(=O)N[C@@H](Cc2c[nH]c3c(C)cccc23)C(=O)N[C@@H](CCC(N)=O)C(=O)NC(C(=O)N[C@@H](Cc2ccc(OCCN)c3c2CCC3)C(=O)N[C@@H](Cc2ccc3ccccc3c2)C(=O)NC2(C(=O)N[C@@H](CCC(=O)O)C(=O)N[C@@H](CC(N)=O)C(=O)N[C@@H](Cc3cccnc3)C(=O)N(C)CC(N)=O)CCS(=O)(=O)CC2)C2(CC2)SSC12CC2` (stereo partly shown) [Compound 55] (Ac-[X1]HT[Trp(7-Me)]Q[X1][Phe(4-OC2H4NH2,2,3-(CH2)3)][2Nal][Thp(SO2)]EN[3Pal][Sar]-NH2; disulfide 1-6) was 0.068 nM.
